Literature values in US6284262A, “Compact dosage unit for buccal administration of a pharmacologically active agent” (priority 1999, dated 2001).

How the values were obtained:
[1] = tested on: sex hormone-binding protein; details: plasma, adult men
[2] = tested on: albumin and other proteins; details: plasma, adult men

C[C@]12CC[C@H]3[C@@H](CCC4=CC(=O)CC[C@@]43C)[C@@H]1CC[C@@H]2O [testosterone]
absorption after oral administration: well absorbed | therapeutic blood levels via oral administration: not possible to achieve therapeutic blood levels | degradation during passage through the liver and intestine (oral): quickly degraded | testosterone bound to sex hormone-binding protein [1]: Approximately 40% | bound to albumin and other proteins [2]: the remainder | free, or unbound testosterone [2]: about 2%
